Source: patent US7812047B2, “4-imidazolines” (Hoffman-La Roche Inc., priority 2007, dated 2010)

The molecules below were run against T1, TAAR1 (Mus musculus, UniProt Q923Y8) (assay: Radioligand binding assay on membranes of HEK293 cells stably expressing TAAR1). Details: mouse TAAR1; radioligand [3H]-rac-2-(1,2,3,4-tetrahydro-1-naphthyl)-2-imidazoline, 4° C., 30 min.
T1 construct: expressed in transfected cells; host or cells: HEK293 cells (ATCC CRL-1573), stably transfected with pIRESneo2 expression plasmid; membranes prepared
Protocol: For the construction of expression plasmids the coding sequences of human, rat and mouse TAAR 1 were amplified from genomic DNA essentially as described by Lindemann et al.. The Expand High Fidelity PCR System (Roche Diagnostics) was used with 1.5 mM Mg^2+ and purified PCR products were cloned into pCR2.1-TOPO cloning vector (Invitrogen) following the instructions of the manufacturer. PCR products were subcloned into the pIRESneo2 vector (BD Clontech, Palo Alto, Calif.), and expression vectors were sequence verified before introduction in cell lines.
HEK293 cells (ATCC # C.RL-1573) were cultured essentially as described Lindemann et al. (2005). For the generation of stably transfected cell lines HEK293 cells were transfected with the pIRESneo2 expression plasmids containing the TAAR coding sequences (described above) with Lipofectamine 2000 (Invitrogen) according to the instructions of the manufacturer, and 24 hrs post transfection the culture medium was supplemented with 1 mg/ml G418 (Sigma, Buchs, Switzerland). After a culture period of about 10 d clones were isolated, expanded and tested for responsiveness to trace amines (all compounds purchased from Sigma) with the cAMP Biotrak Enzyme immunoassay (EIA) System (Amersham) following the non-acetylation EIA procedure provided by the manufacturer.
Cells at confluence were rinsed with ice-cold phosphate buffered saline without Ca^2+ and Mg^2+ containing 10 mM EDTA and pelleted by centrifugation at 1000 rpm for 5 min at 4° C. The pellet was then washed twice with ice-cold phosphate buffered saline and cell pellet was frozen immediately by immersion in liquid nitrogen and stored until use at −80° C. Cell pellet was then suspended in 20 ml HEPES-NaOH (20 mM), pH 7.4 containing 10 mM EDTA, and homogenized with a Polytron (PT 3000, Kinematica) at 10,000 rpm for 10 s. The homogenate was centrifuged at 48,000×g for 30 min at 4° C. and the pellet resuspended in 20 ml HEPES-NaOH (20 mM), pH 7.4 containing 0.1 mM EDTA (buffer A), and homogenized with a Polytron at 10,000 rpm for 10 s. The homogenate was then centrifuged at 48,000×g for 30 min at 4° C. and the pellet resuspended in 20 ml buffer A, and homogenized with a Polytron at 10,000 rpm for 10 s. Protein concentration was determined by the method of Pierce (Rockford, Ill.). The homogenate was then centrifuged at 48,000×g for 10 min at 4° C., resuspended in HEPES-NaOH (20 mM), pH 7.0 including MgCl2 (10 mM) and […] homogenized with a Polytron at 10,000 rpm for 10 s.
Binding assay was performed at 4° C. in a final volume of 1 ml, and with an incubation time of 30 min. The radioligand [^3H]-rac-2-(1,2,3,4-tetrahydro-1-naphthyl)-2-imidazoline was used at a concentration equal to the calculated Kd value of 60 nM to give a bound at around 0.1% of the total added radioligand concentration, and a specific binding which represented approximately 70-80% of the total binding. Non-specific binding was defined as the amount of [^3H]-rac-2-(1,2,3,4-tetrahydro-1-naphthyl)-2-imidazoline bound in the presence of the appropriate unlabelled ligand (10 μM). Competing ligands were tested in a wide range of concentrations […]. […] Each experiment was performed in duplicate. All incubations were terminated by rapid filtration through UniFilter-96 plates (Packard Instrument Company) and glass filter GF/C, pre-soaked for at least 2 h in polyethylenimine 0.3%, and using a Filtermate 96 Cell Harvester (Packard Instrument Company). The tubes and filters were then washed 3 times with 1 ml aliquots of cold buffer B. Filters were not dried and soaked in Ultima gold (45 μl/well, Packard Instrument Company) and bound radioactivity was counted by a TopCount Microplate Scintillation Counter (Packard Instrument Company).

T1 sequence (Q923Y8 whole entry): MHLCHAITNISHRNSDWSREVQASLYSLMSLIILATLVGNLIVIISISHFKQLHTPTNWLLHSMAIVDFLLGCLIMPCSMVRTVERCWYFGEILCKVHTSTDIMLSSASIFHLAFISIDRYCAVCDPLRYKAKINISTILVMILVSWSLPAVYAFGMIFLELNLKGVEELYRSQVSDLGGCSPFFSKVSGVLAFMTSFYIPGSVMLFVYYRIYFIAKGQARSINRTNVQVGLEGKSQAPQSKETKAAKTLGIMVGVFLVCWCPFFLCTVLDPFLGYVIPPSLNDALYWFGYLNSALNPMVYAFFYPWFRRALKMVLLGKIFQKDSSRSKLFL

SMILES | Ki [µM]
C1=NC(Cc2cccc3ccccc23)CN1 (racemic) [Example 2, rac-4-Naphthalen-1-ylmethyl-4,5-dihydro-1H-imidazole or tautomer] | 0.005
C1=NC(CCc2ccccc2)CN1 (racemic) [Example 3, rac-4-Phenethyl-4,5-dihydro-1H-imidazole or tautomer] | 0.06
CCc1cccc2cccc(CC3CNC=N3)c12 (racemic) [Example 6, (RS)-4-(8-Ethyl-naphthalen-1-ylmethyl)-4,5-dihydro-1H-imidazole or tautomer] | 0.078
Clc1ccc(CCC2CNC=N2)cc1 (racemic) [Example 10, rac-4-[2-(4-Chloro-phenyl)-ethyl]-4,5-dihydro-1H-imidazole or tautomer] | 0.327

Further lines, results first:

Ki [µM] | SMILES
0.253 | CCN(CC1CN=CN1)c1ccccc1 (racemic) [Example 4, rac-(4,5-Dihydro-3H-imidazol-4-ylmethyl)-ethyl-phenyl-amine or tautomer]
0.182 | CN(CC1CN=CN1)c1ccccc1 (stereo not shown) [Example 7, (4,5-Dihydro-3H-imidazol-4-ylmethyl)-methyl-phenyl-amine or tautomer]

Same assay, conditions: radioligand binding assay; species not stated; read-out: calculated Kd value of the radioligand

SMILES | Kd [nM]
c1ccc2c(c1)CCCC2C1=NCCN1 (racemic) [[^3H]-rac-2-(1,2,3,4-tetrahydro-1-naphthyl)-2-imidazoline, reference compound] | 60
